The values below come from BindingDB's records for PubMed 33032085 (Guangzhou University of Chinese Medicine, 2021).

A short description of the experiment: Inhibition of influenza A virus neuraminidase using 2-(4-methylumbelliferyl)-a-D-acetylneuraminic acid as substrate incubated for 30 mins by fluorescence based analysis.

Each structure is given as a SMILES string.

The term IC50 denotes the concentration at which inhibition is half-maximal. `C=C1C[C@@H]2[C@@]3(C)CCC(=O)C(C)(C)[C@@H]3C(=O)C[C@@]2(C)[C@@]2(C(=O)OC)C(=O)[C@](C)(O)C(=O)[C@@]12C` had a half-inhibitory concentration (IC50) of 18 nM.
